# Experiments:
# Type in all cases: functional
# Mus musculus [1] = test: Cicatrizant activity against mouse measured by wound breaking strength at 50 mg/ml administered every 12 hrs measured after 48 hrs relative to control
# Mus musculus [2] = test: Cicatrizant activity against mouse assessed as wound breaking strength per gram of body weight administered every 12 hrs measured after 48 hrs relative to control
# Mus musculus [3] = test: Cicatrizant activity against mouse measured by wound breaking strength at 12.5 mg/ml administered every 12 hrs measured after 48 hrs relative to control
# Mus musculus [4] = test: Cicatrizant activity against mouse measured by wound breaking strength at 30 ug/g administered every 12 hrs measured after 48 hrs relative to control
# Mus musculus [5] = test: Cicatrizant activity against mouse measured by wound breaking strength at 40 ug/g administered every 12 hrs measured after 48 hrs relative to control
# Mus musculus [6] = test: Cicatrizant activity against mouse measured by wound breaking strength at 50 ug/g administered every 12 hrs measured after 48 hrs relative to control
# Mus musculus [7] = test: Cicatrizant activity against mouse measured by wound breaking strength at 60 ug/g administered every 12 hrs measured after 48 hrs relative to control
Compound,Activity (Mus musculus [1]) [%],ED50 (Mus musculus [2]) [µg],Activity (Mus musculus [3]) [%],Activity (Mus musculus [4]) [%],Activity (Mus musculus [5]) [%],Activity (Mus musculus [6]) [%],Activity (Mus musculus [7]) [%]
CC(C)=CCC[C@@](C)(O)[C@@H]1CC=C(C)CC1,17.6,155,–,–,–,–,–
CC1(C)CC[C@]2(C(=O)O)CC[C@]3(C)C(=CC[C@@H]4[C@@]5(C)CC[C@H](O)C(C)(C)[C@@H]5CC[C@]43C)[C@@H]2C1 [OLEANOLIC_ACID],–,–,42.9,25.4,39.3,30.9,26.2

# — ChEMBL document CHEMBL1157978, “In vivo wound-healing activity of oleanolic acid derived from the acid hydrolysis of Anredera diffusa” (2006)
